The text below walks through data of patent US11667649B2, “Heteroaromatic macrocyclic ether chemotherapeutic agents” (Nuvalent, Inc., priority 2020, dated 2023).

The assay concerns TPM3-NTRK1-wt IC50 / primary target (e.g. CD74-ROS1-wt) IC50, Ba/F3 cells. Nature of the assay: Cell assay TRKA selectivity (TRKA potency divided by primary target potency). Format: cell-based. To be noted: for TPM3-NTRK1-wt/CD74-ROS1-G2032R: TRKA selectivity ratio: TPM3-NTRK1-wt IC50 / CD74-ROS1-G2032R IC50, Ba/F3 cells; for TPM3-NTRK1-wt/CD74-ROS1-wt: TRKA selectivity ratio: TPM3-NTRK1-wt IC50 / CD74-ROS1-wt IC50, Ba/F3 cells; for TPM3-NTRK1-wt/EML4-ALK-L1196M-G1202R: TRKA selectivity ratio: TPM3-NTRK1-wt IC50 / EML4-ALK-L1196M-G1202R IC50, Ba/F3 cells; for TPM3-NTRK1-wt/EML4-ALK-wt: TRKA selectivity ratio: TPM3-NTRK1-wt IC50 / EML4-ALK-wt IC50, Ba/F3 cells. A digest of the protocol:
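IL-3-independent Ba/F3 lines stably expressing TPM3-TRKA or the primary fusion (e.g. CD74-ROS1 wt) were exposed to 3-fold compound dilutions for 72 h. Viability was read by CellTiter-Glo luminescence, with IC50 from four-parameter logistic fit. Selectivity is TPM3-NTRK1 IC50 divided by primary-target IC50, binned A (>30-fold) to D (<1).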

Consider `C[C@H]1Oc2cc(cnc2N)-c2c(cnn2CC2CC2)Cc2cc(C(F)F)nn2-c2ccc(F)cc21` [Example 130, (19R)-3-(cyclopropylmethyl)-10-(difluoromethyl)-16-fluoro-19-methyl-20-oxa-3,4,11,12,23-pentaazapentacyclo[19.3.1.0^2,^6.0^8,^12.0^13,^18]pentacosa-1(24),2(6),4,8,10,13,15,17,21(25),22-decaen-22-amine], for which the TPM3-NTRK1-wt/CD74-ROS1-G2032R entry is listed as “A (bin A for very high selectivity, ratio>30-fold)”; the TPM3-NTRK1-wt/CD74-ROS1-wt result is reported as “A (bin A for very high selectivity, ratio>30-fold)”; the TPM3-NTRK1-wt/EML4-ALK-L1196M-G1202R result was “B (bin B for high selectivity, ratio>10-fold)”; the TPM3-NTRK1-wt/EML4-ALK-wt result is given as “A (bin A for very high selectivity, ratio>30-fold)”.

Turning to `CCn1ncc2c1-c1cnc(N)c(c1)O[C@H](C)c1cc(F)ccc1-c1nc(C)oc1C2` [Example 131, (19R)-3-ethyl-16-fluoro-10,19-dimethyl-9,20-dioxa-3,4,11,23-tetraazapentacyclo[19.3.1.0^2,^6.0^8,^12.0^13,^18]pentacosa-1(24),2(6),4,8(12),10,13,15,17,21(25),22-decaen-22-amine], the TPM3-NTRK1-wt/CD74-ROS1-G2032R entry was “B (bin B for high selectivity, ratio>10-fold)”; the TPM3-NTRK1-wt/CD74-ROS1-wt result was “A (bin A for very high selectivity, ratio>30-fold)”; the TPM3-NTRK1-wt/EML4-ALK-L1196M-G1202R result is on record as “C (bin C for moderate selectivity, ratio≥1)”; the TPM3-NTRK1-wt/EML4-ALK-wt result is reported as “B (bin B for high selectivity, ratio>10-fold)”.

In the case of `C[C@H]1Oc2cc(cnc2N)-c2c(C#N)nn(C)c2Cc2cc(C(F)F)nn2-c2ccc(F)cc21` [Example 132, (19R)-22-amino-10-(difluoromethyl)-16-fluoro-5,19-dimethyl-20-oxa-4,5,11,12,23-pentaazapentacyclo[19.3.1.0^2,^6.0^8,^12.0^13,^18]pentacosa-1(24),2(6),3,8,10,13,15,17,21(25),22-decaene-3-carbonitrile], the TPM3-NTRK1-wt/CD74-ROS1-G2032R result is on record as “A (bin A for very high selectivity, ratio>30-fold)”; the TPM3-NTRK1-wt/CD74-ROS1-wt result was “A (bin A for very high selectivity, ratio>30-fold)”; the TPM3-NTRK1-wt/EML4-ALK-L1196M-G1202R entry is listed as “C (bin C for moderate selectivity, ratio≥1)”; the TPM3-NTRK1-wt/EML4-ALK-wt entry is “A (bin A for very high selectivity, ratio>30-fold)”.

As for `C[C@H]1Oc2cc(cnc2N)-c2c(c(Cl)nn2CC2CC2)Cc2cn(C)nc2-c2ccc(F)cc21` [Example 133, (19R)-5-chloro-3-(cyclopropylmethyl)-16-fluoro-10,19-dimethyl-20-oxa-3,4,10,11,23-pentaazapentacyclo[19.3.1.0^2,^6.0^8,^12.0^13,^18]pentacosa-1(24),2(6),4,8,11,13,15,17,21(25),22-decaen-22-amine], the TPM3-NTRK1-wt/CD74-ROS1-G2032R entry is “A (bin A for very high selectivity, ratio>30-fold)”; the TPM3-NTRK1-wt/CD74-ROS1-wt result is “A (bin A for very high selectivity, ratio>30-fold)”; the TPM3-NTRK1-wt/EML4-ALK-L1196M-G1202R entry is “A (bin A for very high selectivity, ratio>30-fold)”; the TPM3-NTRK1-wt/EML4-ALK-wt entry is recorded as “A (bin A for very high selectivity, ratio>30-fold)”.

`Cc1nc2c(s1)Cc1c(C)nn(CC3CC3)c1-c1cnc(N)c(c1)O[C@H](C)c1cc(F)ccc1-2` [Example 134, (19R)-3-(cyclopropylmethyl)-16-fluoro-5,10,19-trimethyl-20-oxa-9-thia-3,4,11,23-tetraazapentacyclo[19.3.1.0^2,^6.0^8,^12.0^13,^18]pentacosa-1(24),2(6),4,8(12),10,13,15,17,21(25),22-decaen-22-amine]: the TPM3-NTRK1-wt/CD74-ROS1-G2032R result is “A (bin A for very high selectivity, ratio>30-fold)”; the TPM3-NTRK1-wt/CD74-ROS1-wt entry is on record as “A (bin A for very high selectivity, ratio>30-fold)”; the TPM3-NTRK1-wt/EML4-ALK-L1196M-G1202R entry was “A (bin A for very high selectivity, ratio>30-fold)”; the TPM3-NTRK1-wt/EML4-ALK-wt entry is reported as “A (bin A for very high selectivity, ratio>30-fold)”.

As to `Cc1nn(CC2CC2)c2c1Cc1cccnc1-c1ccc(F)cc1[C@@H](C)Oc1cc-2cnc1N` [Example 135, (20R)-3-(cyclopropylmethyl)-17-fluoro-5,20-dimethyl-21-oxa-3,4,12,24-tetraazapentacyclo[20.3.1.0^2,^6.0^8,^13.0^14,^19]hexacosa-1(25),2(6),4,8(13),9,11,14,16,18,22(26),23-undecaen-23-amine], the TPM3-NTRK1-wt/CD74-ROS1-G2032R result was “A (bin A for very high selectivity, ratio>30-fold)”; the TPM3-NTRK1-wt/CD74-ROS1-wt entry was “A (bin A for very high selectivity, ratio>30-fold)”; the TPM3-NTRK1-wt/EML4-ALK-L1196M-G1202R result is listed as “A (bin A for very high selectivity, ratio>30-fold)”; the TPM3-NTRK1-wt/EML4-ALK-wt result is given as “A (bin A for very high selectivity, ratio>30-fold)”.

Take `Cc1nn(CC2CC2)c2c1Cc1cc(C(F)F)nn1-c1ccc(F)cc1COc1cc-2cnc1N` [Example 136, 3-(cyclopropylmethyl)-10-(difluoromethyl)-16-fluoro-5-methyl-20-oxa-3,4,11,12,23-pentaazapentacyclo[19.3.1.0^2,^6.0^8,^12.0^13,^18]pentacosa-1(24),2(6),4,8,10,13,15,17,21(25),22-decaen-22-amine]: the TPM3-NTRK1-wt/CD74-ROS1-G2032R entry was “A (bin A for very high selectivity, ratio>30-fold)”; the TPM3-NTRK1-wt/CD74-ROS1-wt result is given as “A (bin A for very high selectivity, ratio>30-fold)”; the TPM3-NTRK1-wt/EML4-ALK-L1196M-G1202R result is listed as “A (bin A for very high selectivity, ratio>30-fold)”; the TPM3-NTRK1-wt/EML4-ALK-wt result was “A (bin A for very high selectivity, ratio>30-fold)”.

As to `C[C@H]1Oc2cc(cnc2N)-c2c(cnn2CC2CC2)Cc2cccnc2-c2ccc(F)cc21` [Example 137, (20R)-3-(cyclopropylmethyl)-17-fluoro-20-methyl-21-oxa-3,4,12,24-tetraazapentacyclo[20.3.1.0^2,^6.0^8,^13.0^14,^19]hexacosa-1(25),2(6),4,8(13),9,11,14,16,18,22(26),23-undecaen-23-amine], the TPM3-NTRK1-wt/CD74-ROS1-G2032R result is recorded as “A (bin A for very high selectivity, ratio>30-fold)”; the TPM3-NTRK1-wt/CD74-ROS1-wt entry is reported as “A (bin A for very high selectivity, ratio>30-fold)”; the TPM3-NTRK1-wt/EML4-ALK-L1196M-G1202R result is reported as “A (bin A for very high selectivity, ratio>30-fold)”; the TPM3-NTRK1-wt/EML4-ALK-wt entry is “A (bin A for very high selectivity, ratio>30-fold)”.

Consider `Nc1ncc2cc1OCc1cc(F)ccc1-n1nc(C(F)F)cc1Cc1cnn(CC3CC3)c1-2` [Example 138, 3-(cyclopropylmethyl)-10-(difluoromethyl)-16-fluoro-20-oxa-3,4,11,12,23-pentaazapentacyclo[19.3.1.0^2,^6.0^8,^12.0^13,^18]pentacosa-1(24),2(6),4,8,10,13,15,17,21(25),22-decaen-22-amine], for which the TPM3-NTRK1-wt/CD74-ROS1-G2032R entry is “A (bin A for very high selectivity, ratio>30-fold)”; the TPM3-NTRK1-wt/CD74-ROS1-wt entry is recorded as “A (bin A for very high selectivity, ratio>30-fold)”; the TPM3-NTRK1-wt/EML4-ALK-L1196M-G1202R entry is “A (bin A for very high selectivity, ratio>30-fold)”; the TPM3-NTRK1-wt/EML4-ALK-wt entry is “A (bin A for very high selectivity, ratio>30-fold)”.

As for `C[C@H]1Oc2cc(cnc2N)-c2c(cnn2C2COC2)Cc2cn(C)nc2-c2ccc(F)cc21` [Example 139, (19R)-16-fluoro-10,19-dimethyl-3-(oxetan-3-yl)-20-oxa-3,4,10,11,23-pentaazapentacyclo[19.3.1.0^2,^6.0^8,^12.0^13,^18]pentacosa-1(24),2(6),4,8,11,13,15,17,21(25),22-decaen-22-amine], the TPM3-NTRK1-wt/CD74-ROS1-G2032R result is recorded as “A (bin A for very high selectivity, ratio>30-fold)”; the TPM3-NTRK1-wt/CD74-ROS1-wt entry is on record as “A (bin A for very high selectivity, ratio>30-fold)”; the TPM3-NTRK1-wt/EML4-ALK-L1196M-G1202R entry was “C (bin C for moderate selectivity, ratio≥1)”; the TPM3-NTRK1-wt/EML4-ALK-wt entry is recorded as “A (bin A for very high selectivity, ratio>30-fold)”.

For the molecule `CCn1cc2c(n1)-c1ccc(F)cc1[C@@H](C)Oc1cc(cnc1N)-c1c(cnn1CC1CC1)C2` [Example 140, (19R)-3-(cyclopropylmethyl)-10-ethyl-16-fluoro-19-methyl-20-oxa-3,4,10,11,23-pentaazapentacyclo[19.3.1.0^2,^6.0^8,^12.0^13,^18]pentacosa-1(24),2(6),4,8,11,13,15,17,21(25),22-decaen-22-amine], the TPM3-NTRK1-wt/CD74-ROS1-G2032R entry was “A (bin A for very high selectivity, ratio>30-fold)”; the TPM3-NTRK1-wt/CD74-ROS1-wt result is recorded as “A (bin A for very high selectivity, ratio>30-fold)”; the TPM3-NTRK1-wt/EML4-ALK-L1196M-G1202R entry was “A (bin A for very high selectivity, ratio>30-fold)”; the TPM3-NTRK1-wt/EML4-ALK-wt result was “A (bin A for very high selectivity, ratio>30-fold)”.

For `Cc1cc2n(n1)-c1ccc(F)cc1[C@@H](C)Oc1cc(cnc1N)-c1c(c(C)nn1CC1CC1)C2` [Example 141, (19R)-3-(cyclopropylmethyl)-16-fluoro-5,10,19-trimethyl-20-oxa-3,4,11,12,23-pentaazapentacyclo[19.3.1.0^2,^6.0^8,^12.0^13,^18]pentacosa-1(24),2(6),4,8,10,13,15,17,21(25),22-decaen-22-amine], the TPM3-NTRK1-wt/CD74-ROS1-G2032R entry is “A (bin A for very high selectivity, ratio>30-fold)”; the TPM3-NTRK1-wt/CD74-ROS1-wt entry is given as “A (bin A for very high selectivity, ratio>30-fold)”; the TPM3-NTRK1-wt/EML4-ALK-L1196M-G1202R result was “A (bin A for very high selectivity, ratio>30-fold)”; the TPM3-NTRK1-wt/EML4-ALK-wt result is given as “A (bin A for very high selectivity, ratio>30-fold)”.

Consider `CCn1nc(Cl)c2c1-c1cnc(N)c(c1)O[C@H](C)c1cc(F)cnc1-c1nn(C)cc1C2` [Example 142, (19R)-5-chloro-3-ethyl-16-fluoro-10,19-dimethyl-20-oxa-3,4,10,11,14,23-hexaazapentacyclo[19.3.1.0^2,^6.0^8,^12.0^13,^18]pentacosa-1(24),2(6),4,8,11,13,15,17,21(25),22-decaen-22-amine], for which the TPM3-NTRK1-wt/CD74-ROS1-G2032R entry was “A (bin A for very high selectivity, ratio>30-fold)” and the TPM3-NTRK1-wt/EML4-ALK-L1196M-G1202R entry was “B (bin B for high selectivity, ratio>10-fold)”.
